The results in this text go back to patent publication US20090325964A1, “Piperazine Metabotropic Glutamate Receptor 5 (MGLUR5) Negative Allosteric Modulators For Anxiety/Depression” (Wyeth, priority 2008, published 2009).

Each structure is given as a SMILES string. Like-named read-outs stand apart in the source and are kept apart here.

The test deals with T1, rat mGluR5 receptor (Rattus norvegicus, UniProt P31424).
T1 construct: expressed in transfected cells; host or cells: HEK-293
Description: [3H]-MPEP displacement binding assay, HEK-293 cell membranes expressing rat mGluR5. The conditions noted are these: for Ki: read-out: Median Ki. As for the experimental part:
MGluR5 expressing HEK-293 cells were scraped off a plate, transferred to centrifuge tubes and washed twice by centrifugation (2000 rpm for 10 minutes, at 4° C.) in buffer (50 mM Tris pH 7.5). The resulting pellets were aliquoted and stored at minus 80° C. On the day of assay, the cells were thawed on ice and re-suspended in buffer. The binding assay was performed in a 96 well microtiter plate in a total volume of […]. Non-specific binding was determined in the presence of 10 μM MPEP. The binding reaction included a final radioligand [^3H]-MPEP concentration of 4 nM and 12-25 μg membrane protein per well. Following a 60 minute incubation at room temperature, the reaction was terminated by the addition of ice cold buffer and rapid filtration through a GF/B filter that had been presoaked for 30 minutes in 0.5% PEI. Compounds were initially tested in a single point assay to determine percent inhibition at 10 μM.
Percent inhibition and Ki values were generated by GraphPad Prism and Excel Fit. IC50 values were calculated using GraphPad by fitting to a 1 or 2 site-binding model.
where [L] is the concentration of free radioligand and Kd is the dissociation constant of radioligand for the receptor.

Where [1] appears, read: 1 h, single point, @ 10 μm compound, Table 1A, read-out: PCT INHIB (%) @ 10 μm.
[2] abbreviates: @ 10 μM compound, Biological Activity, Table 2A, read-out: PCT INHIB (%) @ 10 μM.

T1 sequence (P31424 21-1203): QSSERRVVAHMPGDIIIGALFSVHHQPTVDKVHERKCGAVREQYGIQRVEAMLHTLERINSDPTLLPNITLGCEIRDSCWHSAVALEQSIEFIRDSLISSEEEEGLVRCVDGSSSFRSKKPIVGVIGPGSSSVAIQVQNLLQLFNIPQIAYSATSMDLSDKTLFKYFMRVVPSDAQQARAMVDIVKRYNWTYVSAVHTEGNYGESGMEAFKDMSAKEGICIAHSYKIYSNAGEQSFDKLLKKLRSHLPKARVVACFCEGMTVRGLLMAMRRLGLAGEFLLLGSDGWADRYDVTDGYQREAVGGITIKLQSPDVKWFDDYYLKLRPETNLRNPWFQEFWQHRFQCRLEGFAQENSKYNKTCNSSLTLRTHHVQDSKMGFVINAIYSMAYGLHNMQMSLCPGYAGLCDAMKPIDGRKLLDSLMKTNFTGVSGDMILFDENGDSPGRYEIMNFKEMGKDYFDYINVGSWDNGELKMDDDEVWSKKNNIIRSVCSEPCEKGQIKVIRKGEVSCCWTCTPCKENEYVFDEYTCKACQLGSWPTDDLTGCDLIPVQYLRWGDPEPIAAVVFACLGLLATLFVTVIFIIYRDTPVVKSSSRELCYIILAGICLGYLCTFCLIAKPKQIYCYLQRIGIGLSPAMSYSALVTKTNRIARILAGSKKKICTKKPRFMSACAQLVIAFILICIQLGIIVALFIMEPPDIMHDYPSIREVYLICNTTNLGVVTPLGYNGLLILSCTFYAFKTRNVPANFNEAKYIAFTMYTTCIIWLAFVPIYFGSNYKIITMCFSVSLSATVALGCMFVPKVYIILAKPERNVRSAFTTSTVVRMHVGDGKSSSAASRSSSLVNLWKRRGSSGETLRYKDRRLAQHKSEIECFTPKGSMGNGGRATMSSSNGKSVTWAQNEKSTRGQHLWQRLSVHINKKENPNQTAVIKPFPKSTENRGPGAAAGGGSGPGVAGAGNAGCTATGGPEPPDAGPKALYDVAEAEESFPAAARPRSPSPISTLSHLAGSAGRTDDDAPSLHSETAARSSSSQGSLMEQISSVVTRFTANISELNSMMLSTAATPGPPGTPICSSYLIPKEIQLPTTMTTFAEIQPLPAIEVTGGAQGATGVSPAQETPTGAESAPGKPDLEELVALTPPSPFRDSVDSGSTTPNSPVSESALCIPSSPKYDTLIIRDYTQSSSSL

A word on the Ki: it is the dissociation constant of the complex between target and ligand, obtained from inhibition or displacement. For the molecule `COc1ccc(C(=O)N2CCN(c3cnccn3)CC2)cc1C#CC1=CCCCC1` [Compound 50, 2-{4-[3-(cyclohex-1-en-1-ylethynyl)-4-methoxybenzoyl]piperazin-1-yl}pyrazine], the Ki was determined as 0.171 µM. Further, the inhibition at 10 µM under setting [1] came out at 90%.
With `COc1ccc(C(=O)N2CCN(c3cnccn3)CC2)cc1C#CCc1ccccc1` [Compound 51, 2-{4-[4-methoxy-3-(3-phenylprop-1-yn-1-yl)benzoyl]piperazin-1-yl}pyrazine], the Ki was 0.0339 µM. In addition, the inhibition at 10 µM under setting [1] amounted to 92%.
The like results for `COc1cccc(C#Cc2cc(C(=O)N3CCN(c4cnccn4)CC3)ccc2OC)c1` [Compound 52, 2-(4-{4-methoxy-3-[(3-methoxyphenyl)ethynyl]benzoyl}piperazin-1-yl)pyrazine] were, in that order, 0.0601 µM and 81%.
The like results for `COc1ccc(C(=O)N2CCN(c3cnccn3)CC2)cc1C#Cc1cccc(C)c1` [Compound 53, 2-(4-{4-methoxy-3-[(3-methylphenyl)ethynyl]benzoyl}piperazin-1-yl)pyrazine] were, in that order, 0.00863 µM and 95%.
The like results for `COc1ccc(C(=O)N2CCN(c3cnccn3)CC2)cc1C#Cc1cccc(C(F)(F)F)c1` [Compound 54, 2-[4-(4-methoxy-3-{[3-(trifluoromethyl)phenyl]ethynyl}benzoyl)piperazin-1-yl]pyrazine] were, in that order, 0.109 µM and 96%.
`Cc1ccc(C(=O)N2CCN(c3cnccn3)CC2)cc1C#CC1=CCCCC1` [Compound 56, 2-{4-[3-(cyclohex-1-en-1-ylethynyl)-4-methylbenzoyl]piperazin-1-yl}pyrazine]: the Ki was 1.89 µM. Also, under setting [1], the inhibition at 10 µM was 70%.
In the case of `Cc1ccc(C(=O)N2CCN(c3cnccn3)CC2)cc1C#CCc1ccccc1` [Compound 57, 2-{4-[4-methyl-3-(3-phenylprop-1-yn-1-yl)benzoyl]piperazin-1-yl}pyrazine], the Ki came to 0.363 µM. Besides, the inhibition at 10 µM under setting [1] stood at 87%.
Turning to `COc1cccc(C#Cc2cc(C(=O)N3CCN(c4cnccn4)CC3)ccc2C)c1` [Compound 58, 2-(4-{3-[(3-methoxyphenyl)ethynyl]-4-methylbenzoyl}piperazin-1-yl)pyrazine], the Ki is 0.322 µM. Under setting [1], the inhibition at 10 µM stood at 93%.
The like results for `Cc1cccc(C#Cc2cc(C(=O)N3CCN(c4cnccn4)CC3)ccc2C)c1` [Compound 59, 2-(4-{4-methyl-3-[(3-methylphenyl)ethynyl]benzoyl}piperazin-1-yl)pyrazine] were, in that order, 0.0625 µM and 100%.
The like results for `Cc1ccc(C(=O)N2CCN(c3cnccn3)CC2)cc1C#Cc1cccc(C(F)(F)F)c1` [Compound 60, 2-[4-(4-methyl-3-{[3-(trifluoromethyl)phenyl]ethynyl}benzoyl)piperazin-1-yl]pyrazine] were, in that order, 0.749 µM and 85%.
Turning to `COc1ccc(C(=O)N2CCN(c3cnccn3)CC2)cc1C#Cc1cccc(F)c1` [Compound 61, 2-(4-{3-[(3-fluorophenyl)ethynyl]-4-methoxybenzoyl}piperazin-1-yl)pyrazine], the Ki came to 0.0217 µM.
The same measure, in the same setting: for `Cc1ccc(C(=O)N2CCN(c3cnccn3)CC2)cc1C#Cc1cccc(F)c1` [Compound 62, 2-(4-{3-[(3-fluorophenyl)ethynyl]-4-methylbenzoyl}piperazin-1-yl)pyrazine] the value was 0.121 µM; for `COc1ccc(C(=O)N2CCN(c3ccccn3)CC2)cc1C#Cc1cccc(F)c1` [Compound 63, 1-{3-[(3-fluorophenyl)ethynyl]-4-methoxybenzoyl}-4-pyridin-2-ylpiperazine], 0.00734 µM; for `Cc1ccc(C(=O)N2CCN(c3ccccn3)CC2)cc1C#Cc1cccc(F)c1` [Compound 64, 1-{3-[(3-fluorophenyl)ethynyl]-4-methylbenzoyl}-4-pyridin-2-ylpiperazine], 0.131 µM.
On the same count and under the same terms, for `COc1ccc(C(=O)N2CCN(c3cnccn3)CC2)cc1C#Cc1cccc(Cl)c1` [Compound 65, 2-(4-{3-[(3-chlorophenyl)ethynyl]-4-methoxybenzoyl}piperazin-1-yl)pyrazine] the value was 0.00211 µM; for `COc1ccc(C(=O)N2CCN(c3cnccn3)CC2)cc1C#Cc1ccccn1` [Compound 66, 2-{4-[4-methoxy-3-(pyridin-2-ylethynyl)benzoyl]piperazin-1-yl}pyrazine], 0.0212 µM; for `Cc1ccc(C(=O)N2CCN(c3cnccn3)CC2)cc1C#Cc1cccc(Cl)c1` [Compound 67, 2-(4-{3-[(3-chlorophenyl)ethynyl]-4-methylbenzoyl}piperazin-1-yl)pyrazine], 0.0491 µM.
Take `Cc1ccc(C(=O)N2CCN(c3cnccn3)CC2)cc1C#Cc1ccccn1` [Compound 68, 2-{4-[4-methyl-3-(pyridin-2-ylethynyl)benzoyl]piperazin-1-yl}pyrazine]: the inhibition constant Ki was 0.00884 µM.
Turning to `CN1CCN(C(=O)c2cccc(C#Cc3ccccc3)c2)CC1` [Compound 70, 1-methyl-4-[3-(phenylethynyl)benzoyl]piperazine], the inhibition at 10 µM under setting [2] worked out at 0%.
Same read-out and setting: for `COc1ccc(N2CCN(C(=O)c3cccc(C#Cc4ccccc4)c3)CC2)cc1` [Compound 71, 1-(4-methoxyphenyl)-4-[3-(phenylethynyl)benzoyl]piperazine] the value was 40%; for `O=C(c1cccc(C#Cc2ccccc2)c1)N1CCN(c2ccc(Cl)cc2)CC1` [Compound 72, 1-(4-chlorophenyl)-4-[3-(phenylethynyl)benzoyl]piperazine], 30%.
The same measure, in the same setting: for `Cc1ccc(N2CCN(C(=O)c3cccc(C#Cc4ccccc4)c3)CC2)cc1` [Compound 73, 1-(4-methylphenyl)-4-[3-(phenylethynyl)benzoyl]piperazine] the value was 0%.
Take `CC(=O)c1ccc(N2CCN(C(=O)c3cccc(C#Cc4ccccc4)c3)CC2)cc1` [Compound 74, 1-(4-{-[3-(phenylethynyl)benzoyl]piperazine-1-yl}phenyl)ethanone]: the “PCT INHIB (%) @ 10 μM” value (@ 10 μM compound, Biological Activity, Table 2A) came out at 20%.
Consider `O=C(c1cccc(C#Cc2ccccc2)c1)N1CCN(c2ccc([N+](=O)[O-])cc2)CC1` [Compound 75, 1-(4-nitrophenyl)-4-[3-(phenylethynyl)benzoyl]piperazine], for which, under setting [2], the inhibition at 10 µM worked out at 20%.
Take `O=C(c1cccc(C#Cc2ccccc2)c1)N1CCN(c2ccccc2)CC1` [Compound 76, 1-phenyl-4-[3-(phenylethynyl)benzoyl]piperazine]: the inhibition at 10 µM under setting [2] stood at 86%. For the same molecule, for the setting “Biological Activity, Table 2A”, the Ki is 1.29 µM.
Turning to `O=C(c1cccc(C#Cc2ccccc2)c1)N1CCN(c2ccc(C(F)(F)F)cc2)CC1` [Compound 77, 1-[3-(phenylethynyl)benzoyl]-4-[4-(trifluoromethyl)phenyl]piperazine], under setting [2], the inhibition at 10 µM amounted to 0%.
Consider `Cc1cccc(C)c1N1CCN(C(=O)c2cccc(C#Cc3ccccc3)c2)CC1` [Compound 78, 1-(2,6-dimethylphenyl)-4-[3-(phenylethynyl)benzoyl]piperazine], for which the inhibition at 10 µM under setting [2] was determined as 53%. The Ki (Biological Activity, Table 2A) was more than 10 µM.
As for `O=C(c1cccc(C#Cc2ccccc2)c1)N1CCN(c2ccc(F)cc2)CC1` [Compound 79, 1-(4-fluorophenyl)-4-[3-(phenylethynyl)benzoyl]piperazine], the inhibition at 10 µM under setting [2] was determined as 28%.
